Structures are written as SMILES. pEC50, pIC50, pKd: −log10 of the molar value. Where “and” joins values, the source holds several entries; their conditions need not be identical. Equal entries are not always repeated. Where two headings read alike, the source gives them in different places. Marks after values point to notes of the source that are not given here.

The test system of series [1] is P4 cell line. Briefly: Cellular ROS assay (DCFH-DA). The class given is cell-based, human. As to conditions: P4 cells, 24 h compound treatment. On the procedure:
The cells were then treated for 72 h (or shorter as indicated) with culture medium containing semi-logarithmic dilutions of the test compound. Alternatively, 3 × 10^3 cells/well were seeded when cells were treated for 24 h only. At the end of the incubation period, cells were loaded with 40 µM DCFH-DA (#D6883, Sigma-Aldrich). in M199 without phenol red for 30 min. The excess of the dye was washed with ice-cold M199 without phenol red and the cells were lysed with 100 µl/well of ice-cold 0.2% Triton X-100 in M199 without phenol red after 10 min incubation in ice. Cellular debris was spun down by centrifugation at 2600 g, 5 min, +4 °C and 90 µl/well of cell lysate were transferred to a black 96-wells plate and DCF fluorescence was measured on a scanning microplate reader (BMG FLUOstar Omega; Ex. 480 nm, Em. 520 nm).

In series [2] the test system is primary human skin fibroblasts. Briefly: Cellular superoxide detection by HEt oxidation. It counts as cell-based. The note with it: 24 h compound. The protocol: The cells were seeded at a density of 3 × 10^3 cells/well into 96-wells black plates. After 24 h, the cells were incubated with different amounts of KH176(m) for 24 h. For the cellular superoxide measurements cells were then washed with M199 without phenol red and incubated with HEt (#D11347, ThermoFisher) in this same medium for 10 minutes. […] Total cellular fluorescence per well was normalized on the incubation with the probe but without compound (vehicle set as 100%). Experiments were performed at least three times with 3 wells per experiment.

The subject of series [3] is primary human skin fibroblasts. In words: Mitochondrial superoxide detection by mitoSOX oxidation. It counts as cell-based. As to conditions: 30 min preincubation, no external stimulus. The protocol: The cells were seeded at a density of 3 × 10^3 cells/well into 96-wells black plates. After 24 h, the cells were incubated with different amounts of KH176(m) in M199 without phenol red. This medium was used in all subsequent washes and incubations. After 30 min. incubation the cells were washed and subsequently incubated 1 µM mitoSOX (#M36008, ThermoFisher). […] After 10 min incubation the cells were washed twice and incubated for 30 min. to allow the accumulation of oxidized mitoSOX in the mitochondria. […] Wells with cells but without mitoSOX were used for background correction. Experiments were performed at least three times with 3 wells per experiment.

The test system of series [4] is primary human skin fibroblasts. In words: CumOOH induced lipid peroxidation (bodipy 581/591 C11). It counts as cell-based. The note with it: 30 µM cumOOH; for pIC50: bodipy 581/591 C11. On the procedure: The cells were seeded at a density of 3 × 10^3 cells/well into 96-wells black plates. After 24 h, the cells were coincubated with 500 nM bodipy 581/591 C11 (#D3861, Thermo Fisher) and different amounts of KH compound in M199 without phenol red. This medium was used in all subsequent washes and incubations. After 30 min. incubation the cells were washed twice and subsequently incubated with 30 μM cumene hydroperoxide (cumOOH). For background subtractions cells with the dye but without cumOOH were used. After 30 minutes incubation and two washes oxidized bodipy 581/591 C11 was quantified on an automated bioimager (BD Pathway 855), by using a 20x objective and Ex. 488/10 nm, Em. FURA/FITC. Total cellular fluorescence per well was normalized on the number of cellular pixels/well and normalized on the incubation with probe and cumOOH but without compound (vehicle set as 100%). Experiments were performed at least three times with 3 wells per experiment.

Series [5] deals with T1, human Prdx2 (Homo sapiens, UniProt P32119).
T1 construct: purchased Novus Biological NBC1-25855
T1 sequence (P32119 1-198): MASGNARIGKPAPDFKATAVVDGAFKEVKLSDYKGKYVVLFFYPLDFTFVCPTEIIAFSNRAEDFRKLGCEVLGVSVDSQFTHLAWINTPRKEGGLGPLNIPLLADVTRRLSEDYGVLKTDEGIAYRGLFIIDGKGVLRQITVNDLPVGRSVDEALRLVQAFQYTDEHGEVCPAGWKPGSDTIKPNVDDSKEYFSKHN
In words: Surface Plasmon Resonance binding. As to conditions: immobilized Prdx2, SPR; for Binding to Prdx2: 0.31-5.0 µM. On the procedure: Prior to protein immobilization all proteins were dialyzed against HBS-E (10 mM Hepes, 150 mM NaCl, 3 mM EDTA) buffer that was previously filtered through a 0.45 µM membrane using dialyze slide according to the manufacturer instruction. Human recombinant proteins peroxiredoxin 2 (Novus Biological NBC1-25855) and CCDC101 (Abcam Ab124547) were immobilized on CM5 (carboxymethylated dextran covalently attached to a gold surface) using the amine coupling method according to manufacturer’s recommendation (Biacore, GE Healthcare). Briefly the CM5 surface was activated with the mixture of EDC/NHS. Recombinant proteins at dilution 1 µg/ml in a corresponding buffer i.e. Peroxiredoxin 2 and CCDC101 in sodium acetate buffer 100 mM (pH 4.9). The control channel was activated with EDC/NHS. All channels were thereafter saturated with 0.1 M ethanolamine solution. KH176 andKH176m were solubilized in HBSS at stock solution 1 mM. They were thereafter further diluted in HBSS to final concentrations 0.31e-6M, 0.62e-6M, 1.25e-6M, 2.5e-6M and 5.0e-6M and injected over the flow cells at a flow rate equal to […] for 2 min, followed by a dissociation phase of 4 min. The sensor chip surface was regenerated with 1 mM HCl. The specific binding profiles were obtained after subtracting the response signal from the control empty channel and from blank-buffer injection. The specific binding was calculated using Biaeval 3 software (Biacore, GE Healthcare) with the postulate of 1:1 ligand/analyte interaction. Based on the Chi^2 value in regard to the Rmax (less than 10%) and the difference interval ±2.5 RU theoretic fitting compared to experimental results, best fitting algorithm between Langmuir or drifting base line was applied.

Series [6] is described as follows: Single dose pharmacokinetics and bioavailability study. As to conditions: mouse. The class given is in vivo, male C57BL/6 mice. On the procedure:
Pharmacokinetics and toxicokinetics measurements were performed by the commercial Contract Research Organizations Sai Life Sciences and WuXi AppTec, respectively, according to their standard protocols and in accordance with relevant guidelines and regulations. C57 BL/6 mice, Sprague Dawley rats, and Beagle dogs were studied.

The mark [7] stands for this setting: male, C57BL/6, iv, KH176 2 mg/kg i.v., plasma.
Setting [8] is: male, C57BL/6, po, KH176 10 mg/kg p.o., plasma.

The term pIC50 denotes the negative decadic logarithm of the IC50, by convention in mol/L. For orientation: AUC(0-inf) means the area under the concentration-time curve extrapolated to infinity. A lower AUC(0-inf) goes with low exposure. As usually defined, the AUC(0-t) is the area under the concentration-time curve up to a stated or last time point. The low end stands for low exposure, the high end for high exposure. In general, clearance refers to the rate of elimination divided by the concentration. Read a high clearance as efficient removal. By half-life is commonly meant how long it takes for the measured level to halve. A high value points to slow loss. Usually bioavailability stands for the share of a dose that reaches the circulation, judged against a reference dose that is usually intravenous. What is called Cmax is the maximum level reached in the sampled fluid or tissue. Broadly, the Tmax is the time from dosing to the highest level. In the case of `Cc1c(C)c2c(c(C)c1O)CC[C@@](C)(C(=O)N[C@@H]1CCCNC1)O2.Cl` [KH176, (S)-6-hydroxy-2,5,7,8-tetramethyl-N-((R)-piperidin-3-yl)chroman-2-carboxamide hydrochloride], the pIC50 in series [1] (Homo sapiens) is 4.65; in series [4] (Homo sapiens, Skin fibroblast), 4.19. Further, the “Effect on basal cellular superoxide levels (HEt)” value in series [2] is “no effect”. The “Potency on mitochondrial superoxide levels (mitoSOX)” value in series [3] is given as “much less potent”. Besides, the “Binding to Prdx2” value in series [5] is on record as “not”. Further, the Kp lay in the range of 1 to 25 in series [6] (male, C57BL/6, brain, iv, KH176 2 mg/kg i.v., read-out: Brain to Plasma ratio, range (1–8 hours)); 0.4 to 0.8 in series [6] (male, C57BL/6, brain, po, KH176 10 mg/kg p.o., read-out: Brain to Plasma ratio, range (1–8 hours)); 4.3 to 28.3 in series [6] (male, C57BL/6, heart, iv, KH176 2 mg/kg i.v., read-out: Heart to Plasma ratio, range (1–8 hours)); 2.4 to 5.7 in series [6] (male, C57BL/6, heart, po, KH176 10 mg/kg p.o., read-out: Heart to Plasma ratio, range (1–8 hours)); 10.5 to 29.3 in series [6] (male, C57BL/6, liver, iv, KH176 2 mg/kg i.v., read-out: Liver to Plasma ratio, range (1–8 hours)); 5.7 to 12.1 in series [6] (male, C57BL/6, liver, po, KH176 10 mg/kg p.o., read-out: Liver to Plasma ratio, range (1–8 hours)). In addition, the Kp in series [6] (male, C57BL/6, skeletal muscle, iv, KH176 2 mg/kg i.v., read-out: Skeletal muscle to Plasma ratio, range (1–8 hours)) lay within 8.7 to 20.1; in series [6] (male, C57BL/6, skeletal muscle, po, KH176 10 mg/kg p.o., read-out: Skeletal muscle to Plasma ratio, range (1–8 hours)), 0.8 to 5.2. The AUC(0-inf) is 191 ng·h/mL in series [6] (setting [7]) and 624 ng·h/mL in series [6] (setting [8]). Also, the AUC(0-t) in series [6] (setting [7]) was found to be 181 ng·h/mL; in series [6] (setting [8]), 618 ng·h/mL. In series [6] (setting [7]), this compound displayed a clearance of 175 mL/min/kg. In series [6] (setting [7]), this compound showed a half-life of 84 min. Further, the C0 in series [6] (male, C57BL/6, iv, KH176 2 mg/kg i.v., plasma, back extrapolated) was 543 ng/mL. Moreover, in series [6] (male, C57BL/6, plasma, iv, KH176 2 mg/kg i.v., read-out: Vss), the Vd was determined as 9.5 L/kg. Further, in series [6] (male, C57BL/6, plasma, oral, 10 mg/kg p.o. vs 2 mg/kg i.v., from AUClast, read-out: F (oral bioavailability)), the bioavailability stood at 68%. In series [6] (setting [8]), this compound registered a Cmax of 414 ng/mL. Moreover, the Tmax in series [6] (male, C57BL/6, po, KH176 10 mg/kg p.o., plasma, read-out: Tmax) amounted to 15 min.

A word on the pEC50: it is the EC50 on a negative log10 scale, so that one unit is a factor of ten. The pKd is −log10 of the Kd, conventionally taken in molar units. Turning to `CC1=C(C)C(=O)C(CC[C@](C)(O)C(=O)N[C@@H]2CCCNC2)=C(C)C1=O` [KH176m], in series [1], the negative logarithm of the IC50 (pIC50) was 6.60 and 6.59. For the same compound, in series [2] (basal, read-out: EC50 decrease of basal cellular superoxide levels (HEt)), the pEC50 is 5.77. The negative-log IC50 (pIC50) in series [3] (read-out: IC50 mitochondrial superoxide levels (mitoSOX)) is 5.85. In series [4], the “Potency (IC50) of KH176m relative to KH176, lipid peroxidation” value is reported as “about 1000 fold” and the pIC50 is 7.15. The “Binding to Prdx2” value in series [5] is reported as “dose-dependent binding”. For the same compound, the pKd in series [5] (read-out: Affinity (Kd), Langmuir one site model) was 6.52. In series [6] (KH176 2 mg/kg i.v.), the “Brain to Plasma ratio, range (1–8 hours)” value is recorded as “b.d”; the “Heart to Plasma ratio, range (1–8 hours)” value is 6.1–11.6; the “Liver to Plasma ratio, range (1–8 hours)” value was 29.0–57.1; the “Skeletal muscle to Plasma ratio, range (1–8 hours)” value is 8.2–20.5. Moreover, in series [6] (KH176 2 mg/kg i.v., plasma), the AUCINF stood at 146.9 ng·h/mL, the AUClast worked out at 140.0 ng·h/mL and the T1/2 worked out at 30 min. In addition, the “C0 (i.v.)” value in series [6] (KH176 2 mg/kg i.v., plasma, back extrapolated) was 359.3 ng/mL. In addition, in series [6] (KH176 10 mg/kg p.o.), the “Brain to Plasma ratio, range (1–8 hours)” value is recorded as 0.1–19.6; the “Heart to Plasma ratio, range (1–8 hours)” value is 2.1–14.6; the “Liver to Plasma ratio, range (1–8 hours)” value is recorded as 12.8–94.1. For the same compound, in series [6] (KH176 10 mg/kg p.o., plasma), the AUCINF came to 1260.8 ng·h/mL, the AUClast was 1225.2 ng·h/mL, the “Cmax (p.o.)” value worked out at 1061.8 ng/mL and the Tmax stood at 15 min. In series [6] (KH176 10 mg/kg p.o., no concentrations detected at 8 hours), the “Skeletal muscle to Plasma ratio, range at 1 hour” value is given as 4.4–33.8^d.

The values are drawn from PMC5920042, “KH176 Safeguards Mitochondrial Diseased Cells from Redox Stress-Induced Cell Death by Interacting with the Thioredoxin System/Peroxiredoxin Enzyme Machinery” (Scientific Reports, 2018).
